According to PubChem BioAssay (NCI):
Several values for one entry are separate records, joined by “and”; a condition that tells them apart may be missing. Equal values may be shown once.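 Five compound concentrations were applied to cells in 96-well plates for 48 hours; endpoints were derived by simple linear interpolation of the resulting dose-response curve. The concentration for 50% growth inhibition is given as GI50. TGI marks complete inhibition of growth.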

Experiments:
Experiment in all cases: inhibition of tumour cell growth, NCI panel, 48 h
[1] = test system: MALME-3M melanoma
[2] = test system: ACHN renal
[3] = test system: HS 578T breast
[4] = test system: MOLT-4 leukemia
[5] = test system: HT29 colon
[6] = test system: NCI-H23 lung
[7] = test system: SF-539 CNS
[8] = test system: 786-0 renal
[9] = test system: OVCAR-4 ovarian
[10] = test system: SK-MEL-5 melanoma

| SMILES | GI50 [1] | TGI [1] | GI50 [2] [µM] | TGI [2] | GI50 [3] [µM] | TGI [3] [µM] | GI50 [4] | TGI [4] [µM] | GI50 [5] | TGI [5] | GI50 [6] | TGI [6] | GI50 [7] | TGI [7] | GI50 [8] | TGI [8] | GI50 [9] | TGI [9] | GI50 [10] [µM] | TGI [10] |
| --- | --- | --- | --- | --- | --- | --- | --- | --- | --- | --- | --- | --- | --- | --- | --- | --- | --- | --- | --- | --- |
| CNC(=O)c1sc(-n2cnc3cc(OC)c(OC)cc32)cc1OCc1ccccc1C(F)(F)F | > 25 µM | > 25 µM | > 25 | > 25 µM | > 25 | > 25 | > 23.6 µM | > 25 | > 25 µM | > 25 µM | > 25 µM | > 25 µM | > 25 µM | > 25 µM | > 25 µM | > 25 µM | > 25 µM | > 25 µM | > 25 | > 25 µM |
| COc1cc(F)c(F)c(Nc2ccc(I)cc2F)c1NS(=O)(=O)C1(CC(O)CO)CC1 (stereo unspecified) | 1.02 µM | 8.02 µM | 17 | > 73.9 µM | 10.8 | 55.4 | 15.2 µM | 52.3 | 4.5 µM | 22.5 µM | 12.1 µM | 36.4 µM | 15.8 µM | 33.8 µM | 16.8 µM | 38.7 µM | 16.6 µM | > 91.9 µM | 8.12 | 21.9 µM |
| CCc1ccc([OH2+])c(C(=O)[O-])c1.CCc1ccc([OH2+])c(C(=O)[O-])c1.CCc1ccc([OH2+])c(C(=O)[O-])c1.CCc1ccc([OH2+])c(C(=O)[O-])c1.[Cu+2].[Cu+2] | > 100 µM | > 100 µM | > 100 | > 100 µM | > 100 | > 100 | 34.2 µM | > 100 | 44.7 µM | > 100 µM | > 100 µM | > 100 µM | > 100 µM | > 100 µM | > 100 µM | > 100 µM | 28.3 µM | > 100 µM | 17.6 | 42.9 µM |
| CSc1ccc(-c2cn3ccsc3n2)cc1 | 22.1 µM | > 72.6 µM | 5.84 | > 100 µM | 9.5 | > 65.7 | 5.48 µM | > 100 | 33.3 µM | > 100 µM | 19.3 µM | > 100 µM | 16.9 µM | > 75.3 µM | 32.3 µM | > 100 µM | 9.15 µM | > 100 µM | 14.3 | 98.1 µM |
| N#Cc1cnn(C(=O)c2nn(-c3ccc(Cl)cc3)cc2O)c1N | 0.926 µM | 13.6 µM | 0.322 | 12.5 µM | 0.192 | 3.43 | 0.373 µM | 4.06 | 1 µM | 14.3 µM | 0.371 µM | 15.1 µM | 0.323 µM | 7.85 µM | 0.658 µM | 16.3 µM | 0.456 µM | 37.4 µM | 0.464 | 2.51 µM |
| COc1cc2c(cc1O)CCN[C@@]21CS[C@H]2c3c(OC(C)=O)c(C)c4c(c3C(COC1=O)N1C2C2NC(Cc3cc(C)c(OC)c(O)c32)[C@@H]1O)OCO4 (stereo partly specified) | 0.000122 ng/mL | 0.000506 ng/mL |  | 12.9 µM and 2e-06 µg/mL and 0.0045 µg/mL |  | 0.302 | 4.5 ng/mL |  | 4.5 ng/mL | 11.1 µM and 5.58 µg/mL | 4.5 ng/mL | 298 nM and 1.3e-07 µg/mL and 0.0045 µg/mL | 4.5 ng/mL | < 10 nM and 0.0045 µg/mL | 4.5 ng/mL | 30.8 nM and 0.0045 µg/mL | 4.5 ng/mL | < 10 nM and 0.0045 µg/mL |  | < 10 nM and 2.8e-07 µg/mL and 0.0045 µg/mL |
| COc1ccc(/C(=C(\c2ccccc2)[N+](=O)[O-])c2ccc(OCCN3CCCC3)cc2)cc1 | 1.57 µM | 3.43 µM | 6.32 | 18.6 µM | 2.32 | 10.9 | 2.65 µM | 10.5 | 0.301 µM | 1.82 µM | 4.94 µM | 18.6 µM | 1.39 µM | 3.42 µM | 1.64 µM | 3.27 µM | 4.66 µM | 16.7 µM | 1.54 | 2.92 µM |
| CN1CCN(Cc2ccc(NC(=O)c3cncc(C#Cc4c(N)ncc5ccccc45)c3)cc2C(F)(F)F)CC1 | 0.31 µM | 0.979 µM | 0.569 | 1.17 µM | 0.64 | 1.86 | 0.276 µM | 1.37 | 0.18 µM | 1.04 µM | 0.656 µM | 1.46 µM | 0.532 µM | 1.13 µM | 0.89 µM | 1.66 µM | 0.309 µM | 1.1 µM | 0.719 | 1.38 µM |
| COc1cccc(/C=C\C(=O)c2ccccc2)c1 | 14.3 µM | 31.4 µM | 7.34 | 23.4 µM | 4.15 | 27.7 | 6.1 µM | > 100 | 3.65 µM | 17.5 µM | 10.4 µM | 44.8 µM | 10.7 µM | 24.1 µM | 15 µM | 34.2 µM | 10.8 µM | 27 µM | 9.4 | 24.8 µM |
| O=C(/C=C/c1ccco1)Nc1ncc(Cc2cc(Cl)ccc2Cl)s1 | 0.0769 µM | > 100 µM | 0.0664 | > 100 µM | 0.0427 | > 100 | 0.061 µM | > 100 | 0.038 µM | > 100 µM | 0.156 µM | > 100 µM | 0.0373 µM | 0.191 µM | 0.0699 µM | > 100 µM | 1.03 µM | > 100 µM | 0.0441 | > 64.8 µM |
| CC1CCc2c(C(=O)Nc3ncc(Cc4cccc([N+](=O)[O-])c4)s3)csc2C1 (stereo unspecified) | 1 µM | > 100 µM | 0.937 | > 100 µM | 0.72 | > 26.2 | 0.575 µM | > 100 | 0.38 µM | > 100 µM | 1.83 µM | > 100 µM | 0.548 µM | 1.93 µM | 1.18 µM | > 100 µM | 1.64 µM | > 100 µM | 0.476 | > 100 µM |
| COc1cc(OC)c(/C=C/S(=O)(=O)Cc2ccc(OC)c(N)n2)c(OC)c1 | > 100 µM | > 100 µM | < 0.01 | > 100 µM | < 0.01 | > 100 | < 0.0214 µM | > 100 | < 0.0174 µM | > 54.8 µM | < 0.0247 µM | > 100 µM | < 0.01 µM | < 0.01 µM | < 0.01 µM | > 100 µM | 0.0272 µM | > 100 µM | < 0.01 | 0.0116 µM |
| O=C1c2ccc3c4c(ccc(c24)C(=O)N1CCCCO)C(=O)N(CCCCO)C3=O | 0.254 µM | 1.02 µM | 0.92 | 5.18 µM | 5.14 | 24 | 1.92 µM | 12.5 | 0.824 µM | 14.3 µM | 1.6 µM | 5.17 µM | 1.45 µM | 3.87 µM | 2.91 µM | 20.5 µM | 0.428 µM | 1.72 µM | 0.388 | 1.48 µM |
